In US9370503B1, “Compounds for treating ocular diseases” (priority 2015, dated 2016):

Assays:
Assay type in all cases: in vivo
[1] = test system: laser induced AMD rat model; assay: Laser induced AMD rat model, CNV area by fluorescein angiography; details: (II) instillation, laser rupture of Bruch's membrane, vs control about 2.5 mm^2
Protocol: The rats were randomly divided into 2 groups. Control group was instilled with vehicle (30% HP-β-CD solution). […] Both eyes of all rats were instilled with 1 drop of ophthalmic solutions 3 times a day for 1 week before and 4 weeks after laser induced injury. The rats were anesthetized for all procedures with intramuscular injection of ketamine (35 mg/kg) and xylazine (5 mg/kg). The pupils were dilated with one drop each of 10 mg/ml atropine, and 25 mg/ml phenylephrine. The fundus was visualized by the VOLK super Pupil XL Biomicroscopy Lens (Keeler Instruments Inc., Broomall, Pa., USA). A double frequency Nd:YAG laser (Laserex LP3532; Lumenis Inc., Salt Lake City, Utah, USA) was used at 532 nm wavelength. Laser parameters were used by 100 μm spot size, 0.15-second exposure and 150-200 mw powers. Five laser spots were made to the ocular fundus at approximately equal distances around the optic nerves. […] Only laser spots with bubble formation were included in the study. Lesions with subretinal hemorrhage were excluded. Fluorescein angiography (FA) was performed after 2 and 4 weeks laser treatment with a digital fundus camera (TRC-50EX; TOPCON, Tokyo, Japan). 100 mg/ml fluorescein sodium salt was injected (0.5 ml/kg) through hypoglossal vein. Both early (under 2 minutes) and late (over 7 minutes) fluorescein phases were captured. […]

[2] = test system: Ocular Hypertensive Rabbit; assay: Ocular blood flow in ocular hypertensive rabbit (colored microspheres); details: 1% topical instillation, 30 minutes after drug instillation
Protocol: 0.5% alcaine was purchased commercially. A 20% sterilized hypertonic saline solution was prepared in the laboratory. Colored microspheres were purchased from E-Z Trac (Los Angeles, Calif.). The colored microspheres were diluted with saline containing 0.01% (v/v) of Tween 80 to prevent the microspheres from sticking together. Two million microspheres in 0.4 ml were injected at each time point.
Female New Zealand white rabbits weighing 2.-3.0 kg, were purchased commercially. Animal care and treatment were followed by the institutional guidelines.
Rabbits were anesthetized with 35 mg/kg ketamine and 5 mg/kg xylazine by intramuscular injection. Half of the initial dose was given every one hour thereafter. The left ventricle was cannulated through the right carotid artery for injection of colored microspheres and the femoral artery was cannulated for collection of blood samples. The left eye was treated with one drop of proparacaine hydrochloride ophthalmic solution (Bausch & Lomb, Inc., Tampa, Fla., USA). The needle was inserted directly into the anterior chamber of the left eye, which was connected to the 40 mmHg saline manometer. The ocular hypertensive model reduced the ocular blood flow to approximately one third of the normal valued. 50 μl of 10 g/l flavone or vehicle (30% HP-β-CD solution) was instilled topically to the left eye 30 minutes after the ocular hypertensive model was built. The ocular blood flow was measured by colored microspheres at 0, 30, 60 and 120 minutes after treatment with the compounds or vehicle. At each time point, 2 million microspheres were injected as a reference, and blood samples were taken from the femoral artery for exactly one minute following injection of the microspheres. The blood sample was collected in a heparinized tube and the volume was recorded. The rabbits were euthanized with an injection of 100 mg/kg pentobarbital sodium after the last blood sampling. The left eyes were enucleated and dissected into the iris, ciliary body, retina and choroid. All the tissues were weighed.
The details of sample processing and microsphere counting were provided by E-Z Trac (Los Angeles, Calif., USA). In brief, the blood hemolysis reagent was added to the microfuge tubes with the blood sample, then vortexed and centrifuged for 30 minutes at 6000 rpm. The supernatant was removed, and then tissue/blood digest reagents I and II were added. The tubes were capped, vortexed, and centrifuged for 30 minutes. […] The number of microspheres was counted by the hemocytometer under the microscope. […] The protocol thereafter was the same as that used to process the blood samples, and the microspheres were counted.
The blood flow of each tissue at a certain time point was calculated according to the following formula: Qm=(Cm×Qr)/Cr. […]

[3] = test system: rat's retinal function after ischemic insult; assay: b-wave recovery of retinal function after ischemic insult (ERG); details: 1% instilled topically
Protocol: The retinal ischemia experiment has been described previously (Chiou et al., J. Ocular Pharmacol. 9:179-185, 1993, and Chiou et al., J. Ocular Pharmacol. 10:493-498, 1994). Electroretinograms (ERG) were carried out to assess the retinal function prior to and after the ischemic insult. ERGs were recorded using Ag/AgCl electrodes placed in contact with the cornea. One stainless steel needle was inserted subcutaneously between the two eyes as a reference electrode, and another needle was inserted subcutaneously into the neck as a ground electrode. A photostimulator (Grass PS22 Flash) was used to produce flashes of light 5 inches from the eye, and the ERG potentials were recorded on a polygraph. The ERG system was purchased from LKC Technologies, Inc. (Gaithersburg, Md.). A single flash (10 msec) of white light stimuli was used to evoke ERG a- and b-waves. Peak b-wave amplitudes were measured from the trough of the a-wave to the peak of the b-wave.
Long-Evans rats (200-250 g), dark-adapted at least 2 hours, were anaesthetized intramuscularly with ketamine (35 mg/kg) plus xylazine (5 mg/kg). Half of the initial dose was administrated at one hour intervals to maintain adequate anesthesia. The pupils were dilated with 1% tropicamide (50 μl) for ERG experiments. Retinal ischemia was produced by occlusion of the central retina and posterior ciliary arteries using a ligature placed around the optic nerve and posterior ciliary artery. The ligature was drawn tightly through a micropipette tip placed at the base of the eyeball socket to occlude the retinal vessels for 30 min. After 30 min of retinal ischemia, the ligature was liberated and the retinal arteries allowed to reperfuse. ERGs were measured at 30, 60, 90, 120, 180 and 240 min thereafter. The compounds and vehicle were administered topically before occlusion of the central retinal arteries.

CC(C)=CCC/C(C)=C/Cc1c([C@@H]2CC(=O)c3c(cc(O)c(CC=C(C)C)c3O)O2)ccc(O)c1O [Formula (II)]
area of CNV formation [1]: significantly suppressed | blood flow in choroid [2]: significantly increased | blood flow in iris [2]: significantly increased | potency in b-wave recovery [3]: about the same as 1% (I) | duration of drug action on b-wave recovery ([3]; after drug application): 120 min
